Assays:
[1] = cited from earlier work
[2] = Stability study at 40° C. under vacuum (impurity/lactone content); format: physicochemical; details: for lactone content after storage: 20 and 40 hours (final value); for lactone impurity content of starting product: before storage; for chemical stability compared to Rosuvastatin acid: 40 h, hemihydrate
Protocol: Stability Studies at 40° C. Under Vacuum of Co-crystal Rosuvastatin 2-Aminopyrimidine Hemihydrates Compared to Rosuvastatin
The co-crystal has only 3 impurities at 5.651, 5.948 and 6.674 (lactone) min.
For RSV, only some impurities (impurities in common with the co-crystal or impurities with a significant variation) were studied.
Storage conditions: 40° C. under vacuum for 20 and 40 hours.

[3] = Humidity stability, stored at room temperature at RH 100% (XRPD); format: physicochemical; details: RH of 100%, 24 h
From the text: Moreover, the solid maintains its good handling properties.

[4] = Solubility in a series of solvents at room temperature; format: physicochemical
From the text: The solubility of co-crystal Rosuvastatin 2-aminopyrimidine hemihydrate in a series of solvents at room temperature is provided in Table 2 given below: […]

[5] = Polymorphism observed during screening and purification studies; format: physicochemical; details: during screening and studies of the purification of Rosuvastatin
From the text: Co-crystals of the present invention have a relative lack of polymorphism due to the higher complexity of the crystal structure: polymorphs of co-crystal Rosuvastatin 2-aminopyrimidine hemihydrate were not observed during screening and studies of the purification of Rosuvastatin. In contrast, form salts of Rosuvastatin amines having different polymorphs.

[6] = Solid-state stability, stored at room temperature in a sealed vial (XRPD); format: physicochemical; details: 3 weeks
[7] = 40° C. under vacuum, 20 and 40 hours

Compound	pKa [1]	change of other impurities on storage [2, 7]	lactone content after storage ([2]; 40° C. under vacuum)	lactone impurity content of starting product [2]	new impurities on storage [2, 7]	chemical stability compared to Rosuvastatin acid ([2]; 40° C. under vacuum, listed as Co-crystal Rosuvastatin 2-aminopyrimidine hemihydrate)	chemical stability compared to Rosuvastatin acid ([2]; 40° C. under vacuum, listed as co-crystal)	XRPD / crystallinity after humidity exposure [3]	solubility in ACN ([4]; ACN)	solubility in AcOEt ([4]; AcOEt)	solubility in Acetone ([4]; Acetone)	solubility in EtOH ([4]; EtOH)	solubility in MIK ([4]; MIK)	solubility in MeOH ([4]; MeOH)	solubility in THF ([4]; THF)	polymorphs observed [5]	crystalline transformation or loss of crystallinity (XRPD) [6]
c1ccc2nccnc2c1 [quinoxaline]	0.56																
CC(C)c1nc(N(C)S(C)(=O)=O)nc(-c2ccc(F)cc2)c1/C=C/[C@@H](O)C[C@@H](O)CC(=O)O [RSV, (E)-(3R,5S)-7-[4-(4-Fluorophenyl)-6-isopropyl-2-[(methylsulfonyl)(methyl)amino]pyrimidin-5-yl]-3,5-dihydroxyhept-6-enoic acid, reference compound]	4.6	increased with time	39.84%	17.267%													
Rosuvastatin 2-aminopyrimidine hemihydrate		negligible	0.091%	0.036%	No new impurities were observed	higher than the Rosuvastatin acid	higher than the stability of the Rosuvastatin acid	same XRPD without loss of crystallinity	14 vol.	20 vol.	4 vol.	10 vol.	45 vol.	3 vol.	2 vol.	not observed	does not show crystalline transformation (same XRPD) or loss of crystallinity
